{"source": "patent US9938811B2", "about": "“Method of enhancing fracture complexity using far-field divert systems” (Baker Hughes, LLC, priority 2013, dated 2018)", "experiment": "Dissolution in deionized water or HCl 15% (Example 1)", "format": "physicochemical", "details": "20 hours at 180° F., then 3 hours at room temperature", "description": "Phthalic anhydride (obtained from a commercial supplier) and Sample A (8 g of each) were first mixed with 100 mL deionized water or HCl 15% and maintained for 20 hours at 180° F., and then cooled down to room temperature and kept for 3 hours."}
{"compound": "O=C1OC(=O)c2ccccc21", "note": "[Commercial Phthalic Anhydride, Phthalic anhydride]", "values": [{"measurement": "Dissolved (%)", "setting": "8 g in 100 mL HCl 15%", "result": 4, "unit": "%"}, {"measurement": "Dissolved (%)", "setting": "8 g in 100 mL deionized water", "result": 6, "unit": "%"}]}
